Here are results for 32 compounds from a melting point compilation (Tetko et al.; mined from patent text by program, amines drawn as free bases though some values may be those of a salt).

Structures are written as SMILES.

The term melting point denotes the temperature, or range, at which the solid turns liquid.

In the case of `CSC[C@H](C)NC(=O)c1c(Cl)cccc1C(=O)Nc1ccc(Cn2nc(C(F)(F)F)cc2C(F)(F)F)nc1C`, the melting point worked out at 92 °C. In turn, `Clc1ccc(CCC(Cn2ccnc2)Sc2cccc(Cl)c2Cl)cc1` (configuration not stated) came in with a melting point of 134 to 136 °C.

The compound `CC1=C(C)C(=O)N(C2CCC(O)CC2)C1=O` (configuration not stated) gave a melting point of 109 to 111 °C. Under `Cc1ccc(-c2cc(F)c(F)cc2-c2ccc(S(C)(=O)=O)cc2)cc1C` stands 125 to 126 °C; under `Nc1ccc(NC(=O)c2ccc(C(=O)Nc3ccc(N)cc3Cl)cc2)c(Cl)c1`, 261 °C; under `Cc1cc(C)c(Nc2nc(C)ccc2S(=O)(=O)c2ccc(O)cc2)c(C)c1`, 226 to 228 °C. With `N#CCc1ccc(-c2nc3ccccc3o2)cc1-c1cccc(C#N)c1`, the melting point was in the range of 175 to 176 °C. The compound `O=C(O)CCC(=NO)c1ccc(-c2ccc(C(F)(F)F)cc2)cc1` displayed a melting point of 134 to 136 °C. Under `COc1nc2c(cc1NC(=S)N1CCN(c3cc(C)cc(C)c3)CC1)CCC2` stands 159 to 161 °C; under `Cc1nc(C(Cl)(Cl)Cl)nc(OC(=O)C(Cl)(Cl)Cl)c1Cl`, 92 °C; under `COC(=O)Nc1nc(-c2ccccc2)c(-c2nc3ccccc3c(=O)n2-c2cccc(Cl)c2)s1`, 230 to 231 °C. Take `CCCCCCCC(=O)OCc1ccccc1-c1nc(-c2cccc(OC)c2)n[nH]1`: the melting point came to 61 °C. Under `CNc1nc(=O)c2cccnc2n1Cc1ccc(F)cc1` stands 242 to 246 °C; under `COC(=O)[C@H]1CCc2c(OC)cccc2[C@@H]1O`, 87 to 88 °C; under `CCCN1CC(c2ccc(S(C)(=O)=O)cc2)=C(c2ccc(Cl)cc2)C1=O`, 146 to 148 °C. Under `CC(C)[C@H](NC(=O)OCc1ccccc1)C(=O)OC[C@H]1O[C@@H](n2cc(F)c(=O)[nH]c2=O)[C@H](O)[C@@H]1O` stands 64 to 67 °C; under `CCOC(=O)n1c2ccccc2c(=O)n1C(c1ccccc1)c1ccccc1`, 115 to 118 °C.

Regarding `CN(C)C(=O)Nc1ccc(Br)cc1`, the melting point is 168 to 170 °C. For `Nc1cc2c3c(cccc3c1N1CCCC1)C(=O)N(O)C2=O`, the melting point lay in the range of 253 to 256 °C. Under `CC1(C)COP(N(CCCCCCN(C2CC(C)(C)NC(C)(C)C2)P2OCC(C)(C)CO2)C2CC(C)(C)NC(C)(C)C2)OC1` stands 103 °C.

The compound `CC(C)(C)NS(=O)(=O)c1cccnc1F` displayed a melting point of 95 to 97 °C. Under `CCCCNC(=O)c1ccc(Cl)c(-n2nc(CCCC)n(Cc3ccc(-c4ccccc4S(=O)(=O)NC(=O)OC(C)(C)C)cc3F)c2=O)c1` stands 98 to 100 °C; under `CCCc1nc2cc(C(=O)c3ccccc3)ccc2n1Cc1ccc(Cl)c(Cl)c1`, 168 to 169 °C; under `COCS(=O)(=O)c1ccc(C(CC2CCCC2)C(=O)O)cc1` (configuration not stated), 184 to 187 °C.

`N#Cc1ccc(-c2sc(N3C(=O)c4ccccc4C3=O)c(C(=O)c3ccc(Cl)cc3)c2CBr)cc1` displayed a melting point of 211 to 214 °C.

In turn, `COc1ccc(-c2c(NC(=O)c3cc(C(C)(C)C)c(O)c(C(C)(C)C)c3)cnc3ccc(Cl)cc23)cc1OC` came in with a melting point of 293 to 294 °C. `CCCCc1nn(-c2cc(NC(=O)CCC)ccc2Cl)c(=O)n1Cc1ccc(-c2ccccc2S(=O)(=O)NC(=O)c2ccccc2Cl)cc1` registered a melting point above 130 °C. Compound `CC(C(=NO)c1ccc(Cl)cc1Cl)c1cccnc1` (configuration not stated) gave a melting point of 163 to 165 °C.

Regarding `NS(=O)(=O)c1ccc(NC(=O)Nc2ccccc2)cc1`, the melting point is 233 to 235 °C. `CC(=O)Nc1ccccc1CSc1nccn1-c1ccncc1`: the melting point was 153 to 155 °C. Under `CCOC(=O)C(Cl)=Cc1cc(N(C(N)=S)c2cscc2C(=O)OC)ccc1Cl` stands 158 to 160 °C; under `CC(C)NC1=NS(=O)(=O)c2ccc(Cc3nc(C4CC4)no3)cc2N1`, 255 to 259 °C.
